“Also recorded” adds a separate entry of the source.
How the values were obtained:
Assay type in all cases: cell-based
UMR-106 cells [1] = assay: MTT cell viability assay, UMR-106 cells; settings: for IC50: MTT; for effect of low concentrations on osteoblast growth: UMR-106 osteoblasts
Experimental: (§1) Osteoblast-like UMR-106 cells (RRID CVCL_3617; ATCC CRL-1661) and triple-negative breast cancer cells, MDA-MB-231 (RRID CVCL_0062; ATCC HTB-26) were obtained from American Type Culture Collection (ATCC, VA, USA). Cells were cultured in Dulbecco’s modified Eagle’s medium (DMEM) (Sigma-Aldrich, MO, USA) containing 10% (v/v) fetal bovine serum (FBS) and 1% penicillin–streptomycin (Gibco, Texas, USA) and maintained under 5% CO2 at 37 °C, and sub-cultured according to the manufacturer’s instruction.
(§2) Cell viability was assessed using the 3-(4,5-dimethylthiazol-2-yl)-2,5-diphenyltetrazolium bromide (MTT) colorimetric assay. The assay was performed according to a previously described method. In brief, cells were seeded into a 96-well plate at a density of 1.0 × 10^4 cells/well and allowed to attach overnight. Thereafter, they were treated with ACEA, GW405833 or the combination of both for the indicated times. MTT (Invitrogen, CA, USA) solution was added to the final concentration of 0.5 mg/mL in 100 µL in serum-free DMEM and incubated at 37 °C for 4 h, then stop solution was added and thoroughly mixed. The optical density at 595 nm was measured using a microplate reader (Multiskan EX) (Thermo Fisher Scientific, MA, USA). The percentage of cell viability was calculated based on the absorbance ratio between cells treated with the compounds and control multiplied by 100 (percent cell viability normalized to control).
(§3) All results are expressed as means ± standard errors (SEM). Unless otherwise specified, statistical analysis for multiple comparisons was performed using one-way analysis of variance (ANOVA). The difference between pairs of means was analyzed by Tukey post-test. A p-value < 0.05 was considered statistically significant. Calculation of the inhibitory concentration at 50% (IC50) and all statistical analyses were performed using GraphPad Prism 9 (GraphPad Software Inc., USA).

MDA-MB-231 cells [2] = assay: MTT cell viability assay, MDA-MB-231 cells; settings: for IC50: MTT
Experimental: as §1, §2, §3

UMR-106 cells [3] = assay: UMR-106 viability (MTT) with conditioned media from agonist-pretreated MDA-MB-231 cells; settings: MDA-MB-231 pretreated 48 h; CM collected after 48 h in serum-free DMEM
Experimental: To collect CM from MDA-MB-231 cells, cells were seeded into a 6-well plate at a density of 5.0 × 10^5 cells/well and grown for 24 h until reaching 80–90% confluence. In the pretreatment experiment, cells were treated with either ACEA, GW405833 or a combination of both for 48 h. After that, cells were washed with phosphate buffered saline (PBS) and incubated in serum-free DMEM. Forty-eight hours later, CM from these cells was harvested, filtered through a syringe filter (pore size of 0.2 µm; Sartorius Stedim Biotech GmbH, Göttingen, Germany) to remove cells and debris, and stored at − 80 °C for later experiments (Fig. 1a).
as §2, with “MTT (Invitrogen, CA, USA) solution was added to the final concentration of 0.5 mg/mL in 100 µL in serum-free DMEM and incubated at 37 °C for 4 h, then stop solution was added and thoroughly mixed.” left out

[4] = tested on: cellular ROS in MDA-MB-231 cells; assay: DCFDA cellular ROS detection assay; settings: 30 µM ACEA, 15 µM GW405833 or combination, 6 h
Experimental: Cellular reactive oxygen species (ROS) were monitored using the 2´,7´-dichlorofluorescin diacetate (DCFDA) Cellular ROS Detection Assay Kit (ab113851) (Abcam, Cambridge, UK) according to the manufacturer's instruction. In brief, MDA-MB-231 cells were seeded into a 96-black well plates with clear bottom at a density of 2.5 × 10^4 cells/well and grown overnight. Then, the cells were treated with ACEA, GW405833 or the combination of both for 6 h. At the end of the treatment, fluorescence signal of DCF was measured by using a multimode microplate reader (Spark 10 M) (Tecan Austria GmbH, Männedorf, Austria) with the excitation and emission wavelengths of 485 and 535 nm, respectively.

[5] = tested on: p-NF-κB p65 in MDA-MB-231 cells; assay: Western blot of p-NF-κB p65 expression; settings: individual treatments, 48 h
Experimental: Twenty micrograms of protein samples were resolved by sodium dodecyl sulfate polyacrylamide gel electrophoresis (SDS-PAGE) (Invitrogen) gel before being transferred to nitrocellulose blotting membrane (GE Healthcare, Texas, USA).The membranes were then blocked with 5% (w/v) bovine serum albumin (BSA) (Capricorn Scientific, Hessen, Germany) for 2 h at room temperature, followed by the incubation at 4 °C overnight with primary antibodies. After washing, the membranes were incubated with the appropriate horseradish peroxidase (HRP)-conjugated secondary antibodies. Proteins on the immunoblots were visualized by enhanced chemiluminescence (ECL) (Millipore, MA, USA) and exposed to X-ray film (GE Healthcare). Protein band intensity was quantified using ImageJ software (National Institutes of Health, MD, USA). To relatively quantify the target protein expression, the intensity of target protein band was normalized to β-actin of each lane.

MDA-MB-231 cells [6] = assay: Wound healing cell migration assay; settings: for cell migration (wound closure): 15 µM
Experimental: Cell migration was measured by wound healing assay modified from Lertsuwan et al.,[27]. Briefly, MDA-MB-231 cells were seeded into a 24-well plate at a density of 4.0 × 10^5 cells/well and allowed to attach overnight. Thereafter, wound was created with a sterile 200-µL pipette tip, then the cells were treated with ACEA, GW405833 or the combination of both. Series of images of the scratched wound were taken under a phase contrast inverted microscope (model AE31) (Motic, China) from 0 to 36 h. The closure of the wound representing migration ability of the cells was measured by using ImageJ software (National Institutes of Health). Cell migration was calculated as the percentage of wound closure area compared to the initial scratched area.

SMILES	IC50 (UMR-106 cells [1]; 24 h)	IC50 (UMR-106 cells [1]; 48 h)	IC50 (UMR-106 cells [1]; 72 h)	effect of low concentrations on osteoblast growth (UMR-106 cells [1])	Fold differences between IC50 values of UMR-106 / MDA-MB-231 (MDA-MB-231 cells [2]; 24 h)	IC50 (MDA-MB-231 cells [2]; 24 h)	Fold differences between IC50 values of UMR-106 / MDA-MB-231 (MDA-MB-231 cells [2]; 48 h)	IC50 (MDA-MB-231 cells [2]; 48 h)	Fold differences between IC50 values of UMR-106 / MDA-MB-231 (MDA-MB-231 cells [2]; 72 h)	IC50 (MDA-MB-231 cells [2]; 72 h)	Fold differences between IC50 values of UMR-106 / MDA-MB-231 (MDA-MB-231 cells [2]; Average of 24, 48 and 72 h)	effect of pretreatment of MDA-MB-231 cells on CM-mediated suppression of UMR-106 cell viability (UMR-106 cells [3])	cellular ROS levels compared to control group [4]	level of p-NF-κB p65 [5]	percentage of wound closure (cell migration) (MDA-MB-231 cells [6]; 20 µM, 24 h)	percentage of wound closure (cell migration) (MDA-MB-231 cells [6]; 30 µM, 24 h)	percentage of wound closure (cell migration) (MDA-MB-231 cells [6]; 30 µM, 36 h)	cell migration (wound closure) (MDA-MB-231 cells [6]; 24 h)	cell migration (wound closure) (MDA-MB-231 cells [6]; 36 h)
CCCCC/C=C\C/C=C\C/C=C\C/C=C\CCCC(=O)NCCCl [ACEA]	104 µM	62 µM	38 µM	growth stimulatory effect	1.54 fold	67.8 µM	1.63 fold	38 µM	1.16 fold	32.8 µM	1.44 fold	did not alter CM-mediated osteoblast suppression	remained unchanged	remained unchanged	significantly decreased	significantly decreased; also recorded: significant reduction	significantly decreased		
COc1ccc2c(c1)c(CCN1CCOCC1)c(C)n2C(=O)c1cccc(Cl)c1Cl [GW405833]	168 µM	119 µM	79.9 µM	growth stimulatory effect	6.83 fold	24.6 µM	7.18 fold	16.6 µM	6.27 fold	12.7 µM	6.76 fold	significant recovery	remained unchanged	remained unchanged				significant reduction	significant cell migration suppression

From PMC9072415, “Activation of cannabinoid receptors in breast cancer cells improves osteoblast viability in cancer-bone interaction model while reducing breast cancer cell survival and migration” (Scientific Reports, 2022)
